Where two headings read alike, the source gives them in different places.
Test: In vivo pharmacokinetic test, drug concentration in blood plasma by LC-MS/MS
Set-up: species or system SD rats
Conditions: rat, plasma; for concentration at 4 h / concentration at 8 h / AUC(0-t) / Cmax / AUC(0-inf) / clearance / MRT inf / Vd / concentration at 2 h / Vd/F: male, SD; for concentration at 4 h / concentration at 8 h / concentration at 2 h: SD rats; for AUC(0-t) / Cmax / AUC(0-inf) / clearance / MRT inf / Vd / Vd/F / Tmax: male SD rats; for AUC(0-inf): read-out: AUCINF—pred; for clearance: read-out: Cl—pred (converted); for MRT inf: read-out: MRTINF—pred; for Vd: read-out: Vz—pred; for Vd/F: read-out: Vz—F—pred
Description: 2. Test animal: SD rats, which are 284-304 g before the test, and bought from Shanghai Xipuer-Bikai laboratory animal Co., Ltd. with production license No. SCXK (Hu) 2013-0016, and laboratory animal certificate Nos. 2008001658223 and 2008001658296.
2.85 mg of compound LL-01 is weighed, and then put into a glass bottle; 0.687 mL of DMSO is added into the glass bottle, and ultrasonic treatment is carried out for 2 min; next, 2.062 mL of Solutol HS 15 is added thereto, and ultrasonic treatment is carried out for 4 min; and then 10.995 mL of PBS is added thereto, and ultrasonic treatment is carried out for 8 min after eddying. This test substance is numbered 20160324-RW-01, 12.74 mg of compound LL-01 is weighed, and then put into a glass bottle; 0.614 mL of DMSO is added into the glass bottle, and ultrasonic treatment is carried out for 2 min; next, 1.843 mL of Solutol HS 15 is added thereto, and ultrasonic treatment is carried out for 4 min; and then 9.830 mL of PBS is added thereto, and ultrasonic treatment is carried out for 8 min after eddying. This test substance is numbered 20160324-RW-02,
The dosage of intravenous administration is 1 mg/kg, while the dosage of oral administration is 10 mg/kg. A night of fasting is required before administration, and feeding should be carried out 4 hours later after administration.
Blood is collected (about 150-200 uL) at every time points of 0.083 (only vein), 0.25, 0.5, 1, 2, 4, 8, and 24 hours after administration through orbital venous plexus puncture into EDTA-K2 (20%, and 2 μL) anticoagulant tubes, respectively; the blood samples are centrifuged 8 min at 6000 rpm in 1 h (placed on wet ice before being centrifuged), and the supernatant, namely blood plasma is put into −20° C. low-temperature conservation for LC-MS/MS analysis later.
The content of compound LL-01 in SD rat blood plasma is detected by use of LC-MS/MS method.
Computer program Microsoft Office Excel 2007 (Microsoft, USA) is used for data processing, and drawing. A statistical moment method of WinNolin 6.4 processing software is used to calculate pharmacokinetic parameters.

[1] = iv, 1 mg/kg, intravenous 1 mg/kg, animal 101M
[2] = iv, 1 mg/kg, intravenous 1 mg/kg, animal 102M
[3] = iv, 1 mg/kg, intravenous 1 mg/kg, animal 103M
[4] = iv, 1 mg/kg, single intravenous 1 mg/kg, Mean
[5] = iv, 1 mg/kg, single intravenous 1 mg/kg, animal 101M
[6] = iv, 1 mg/kg, single intravenous 1 mg/kg, animal 102M
[7] = iv, 1 mg/kg, single intravenous 1 mg/kg, animal 103M
[8] = po, 10 mg/kg, oral 10 mg/kg, Mean
[9] = po, 10 mg/kg, oral 10 mg/kg, animal 201M
[10] = po, 10 mg/kg, oral 10 mg/kg, animal 202M
[11] = po, 10 mg/kg, oral 10 mg/kg, animal 203M
[12] = po, 10 mg/kg, single oral 10 mg/kg, Mean
[13] = po, 10 mg/kg, single oral 10 mg/kg, animal 201M
[14] = po, 10 mg/kg, single oral 10 mg/kg, animal 202M
[15] = po, 10 mg/kg, single oral 10 mg/kg, animal 203M

Structure (SMILES): CCOc1cccc(Nc2nn(C)c3c2Cc2cc(OCC)c(OCC(N)=O)cc2-3)c1 [LL-01]
- concentration at 4 h [1]: 87.6 ng/mL
- concentration at 4 h [2]: 67.1 ng/mL
- concentration at 4 h [3]: 92.8 ng/mL
- concentration at 8 h (iv, 1 mg/kg, intravenous 1 mg/kg, Mean): 7.8 ng/mL
- concentration at 8 h [1]: 8.6 ng/mL
- concentration at 8 h [2]: 9.1 ng/mL
- concentration at 8 h [3]: 5.6 ng/mL
- AUC(0-t) [4]: 3030 ng·h/mL
- Cmax [4]: 2600 ng/mL
- AUC(0-inf) [4]: 3040 ng·h/mL
- clearance [4]: 5.5 mL/min/kg
- MRT inf [4]: 1.18 h
- Vd [4]: 0.48 L/kg
- AUC(0-t) [5]: 3090 ng·h/mL
- Cmax [5]: 2720 ng/mL
- AUC(0-inf) [5]: 3100 ng·h/mL
- clearance [5]: 5.33 mL/min/kg
- MRT inf [5]: 1.17 h
- Vd [5]: 0.49 L/kg
- AUC(0-t) [6]: 2740 ng·h/mL
- Cmax [6]: 2400 ng/mL
- AUC(0-inf) [6]: 2750 ng·h/mL
- clearance [6]: 6 mL/min/kg
- MRT inf [6]: 1.16 h
- Vd [6]: 0.53 L/kg
- AUC(0-t) [7]: 3270 ng·h/mL
- Cmax [7]: 2690 ng/mL
- AUC(0-inf) [7]: 3280 ng·h/mL
- clearance [7]: 5 mL/min/kg
- MRT inf [7]: 1.21 h
- Vd [7]: 0.41 L/kg
- concentration at 2 h [8]: 920 ng/mL
- concentration at 2 h [9]: 675 ng/mL
- concentration at 2 h [10]: 1280 ng/mL
- concentration at 2 h [11]: 801 ng/mL
- concentration at 4 h [8]: 1280 ng/mL
- concentration at 4 h [9]: 1310 ng/mL
- concentration at 4 h [10]: 1720 ng/mL
- concentration at 4 h [11]: 814 ng/mL
- concentration at 8 h [9]: 451 ng/mL
- AUC(0-t) [12]: 12400 ng·h/mL
- Cmax [12]: 1280 ng/mL
- AUC(0-inf) [12]: 12600 ng·h/mL
- MRT inf [12]: 6.14 h
- Vd/F [12]: 4.57 L/kg
- AUC(0-t) [13]: 10700 ng·h/mL
- Cmax [13]: 1310 ng/mL
- AUC(0-inf) [13]: 10900 ng·h/mL
- MRT inf [13]: 6.58 h
- Vd/F [13]: 5.74 L/kg
- AUC(0-t) [14]: 17700 ng·h/mL
- Cmax [14]: 1720 ng/mL
- AUC(0-inf) [14]: 17800 ng·h/mL
- MRT inf [14]: 5.87 h
- Vd/F [14]: 2.4 L/kg
- AUC(0-t) [15]: 9000 ng·h/mL
- Cmax [15]: 814 ng/mL
- AUC(0-inf) [15]: 9080 ng·h/mL
- MRT inf [15]: 5.96 h
- Vd/F [15]: 5.57 L/kg
- Tmax (single intravenous 1 mg/kg, animal 101M): 0.08 h
- Tmax (single oral 10 mg/kg, animal 201M): 4 h

— patent US10059674B2, “Design, synthesis, and biological evaluation of 1-methyl-1, 4-dihyrdoindeno[1,2-C]pyrazole analogues as potential anticaner agents targeting tubulin colchicine binding site” (ACT PHARMA CO., LTD., priority 2016, dated 2018)
